Paper PMC10545747, “Development of cyclopeptide inhibitors of cGAS targeting protein-DNA interaction and phase separation” (Nature Communications, 2023)
Several values for one entry are separate records, joined by “and”; a condition that tells them apart may be missing. Equal values may be shown once. Read-outs that look alike come from different tables or passages of the source. Square brackets hold non-standard residues; d marks the D form. Peptide text beside a SMILES is read from it.

Target: T1, recombinant human cGAS enzyme (hcGAS-ΔN, residues 147–522) (Homo sapiens, UniProt Q8N884)
T1 construct: N-terminally truncated human cGAS (hcGAS-ΔN, residues 147–522); 6xHis-SUMO (N, cleaved yes); made in house; host or cells: Escherichia coli BL21 (DE3)
Experiment: RNA-based fluorescent biosensor assay of cGAS activity (2',3'-cGAMP formation), in vitro screening
Assay type: biochemical
Conditions: for Remaining activity (%), Fig. 1a source data / remaining activity at 20 µM: 20 μM, replicate values; for remaining activity at 20 µM: read-out: Remaining activity (%), Fig. 1a source data
Text: To screen direct cGAS inhibitors targeting protein-DNA interface from our developed focused library of macrocyclic peptides, we applied an RNA-based fluorescent biosensor for 2’,3’-cGAMP to detect cGAS activity in vitro (Supplementary Fig. 1a)[49]. The formation of 2’,3’-cGAMP from ATP and GTP was catalyzed by recombinant human cGAS enzyme (hcGAS-ΔN, residues 147–522, Supplementary Fig. 1b) in the presence of ISD (interferon stimulatory DNA, a 45-bp dsDNA), which was readily quantified by the RNA-based fluorescent biosensor and was further confirmed by ion exchange chromatography (Supplementary Fig. 1c). […] Subsequently, a total of 90 macrocyclic peptides were screened at a concentration of 20 μM (Fig. 1a and Supplementary Fig. 1e), and 4 hits (XQ2, XQ8, XQ19, and XQ46) were obtained for further testing at a cut-off of 40% inhibition (Supplementary Table 1). To evaluate the inhibitory effect of the hits against cGAS in cells, we employed real-time quantitative PCR (qPCR) to examine mRNA levels of IFNΒ1 in THP1 cells. The reported cGAS inhibitor RU.521 was used as the positive control, and the non-active peptide XQ28 in the screening assay was used as the negative control. […] The inhibition of cGAS by these hits was further confirmed in the reporter cell line THP1-Lucia ISG (Invivogen) that expresses secreted luciferase induced by an IRF3-inducible ISG54 promoter (Fig. 1c). The discrepancy between the inhibitory effect of the hits in protein and cellular assays may be attributed to their different cellular permeability.
The high-throughput screening (HTS) experiments of cGAS activity are based on the method previously described. To initiate the enzyme reaction, ISD was added to the reaction solution (40 mM Tris-HCl, pH 7.5, 100 mM NaCl, 10 mM MgCl2) containing hcGAS-ΔN, ATP (Sangon Biotech, Cat# A600311) and GTP (Sangon Biotech, Cat# A620332) in a total volume of 20 ul with the final concentration of 0.5 μM, 1.5 μM, 1 mM, 1 mM, respectively, and incubated for 2 h at 37 °C. For HTS experiments, compounds were added to the same reaction conditions as described above with the final concentration of 20 μM. Z’ factors were calculated from three replicates in the 384-well plate.

[1] = peptides screened at 20 μM, Supplementary Table 1 / Fig. S5b, read-out: Inhibition %
[2] = peptides screened at 20 μM, Supplementary Table 1 / Fig. S5b

T1 sequence (Q8N884 147-522, stated change not applied): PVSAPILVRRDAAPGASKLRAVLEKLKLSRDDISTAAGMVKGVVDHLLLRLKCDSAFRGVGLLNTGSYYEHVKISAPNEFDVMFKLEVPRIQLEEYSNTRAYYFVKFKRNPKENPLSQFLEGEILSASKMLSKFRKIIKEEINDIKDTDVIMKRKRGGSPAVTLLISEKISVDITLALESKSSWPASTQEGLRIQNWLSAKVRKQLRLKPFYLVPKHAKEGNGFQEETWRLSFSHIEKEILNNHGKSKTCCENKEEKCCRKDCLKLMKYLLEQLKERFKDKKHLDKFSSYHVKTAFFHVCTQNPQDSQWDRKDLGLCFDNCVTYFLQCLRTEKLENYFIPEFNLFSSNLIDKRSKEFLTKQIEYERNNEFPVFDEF

Compound	inhibition at 20 µM [1]	Inhibition % [2]	Remaining activity (%), Fig. 1a source data	remaining activity at 20 µM	inhibition at 20 µM
CC(C)C[C@@H]1NC(=O)[C@H](CCCNC(=N)N)NC(=O)[C@H](C(C)C)NC(=O)[C@@H]2CCCN2C(=O)[C@@H](Cc2ccccc2)NC(=O)[C@H](C)NC(=O)[C@H](CC(C)C)NC(=O)[C@H](C(C)C)NC(=O)[C@@H]2CCCN2C(=O)[C@@H](Cc2ccccc2)NC1=O [XQ50, Cyclo (LfPVLAfPVR)] (cyclo(A[dF]PVRL[dF]PVL))	0%	–	–	–	–
Cyclo (AaRTDLfPVR) [XQ89]	–	0%	–	–	–
Cyclo (LfPTDLf(K(Alloc))VR) [XQ72]	–	0%	–	–	–
CC(C)C[C@@H]1NC(=O)[C@H](CC(=O)O)NC(=O)[C@H](C(C)C)NC(=O)[C@@H]2CCCN2C(=O)[C@@H](Cc2ccccc2)NC(=O)[C@H](CC(C)C)NC(=O)[C@H](CCCNC(=N)N)NC(=O)[C@H](C(C)C)NC(=O)[C@@H]2CCCN2C(=O)[C@@H](Cc2ccccc2)NC1=O [XQ60, Cyclo (LfPVDLfPVR)] (cyclo(DL[dF]PVRL[dF]PV))	0%	–	–	–	–
CC(C)C[C@@H]1NC(=O)[C@H](CCCNC(=N)N)NC(=O)[C@H](C)NC(=O)[C@@H]2CCCN2C(=O)[C@@H](Cc2ccccc2)NC(=O)[C@H](C)NC(=O)[C@H](CCCNC(=N)N)NC(=O)[C@H](C(C)C)NC(=O)[C@@H]2CCCN2C(=O)[C@@H](Cc2ccccc2)NC1=O [XQ13, Cyclo (AfPARLfPVR)] (cyclo(ARL[dF]PVRA[dF]P))	7%	–	92.7452% and 92.4625%	93.4%	–
Cyclo (Lf(Hyp)TDAfPVR) [XQ88]	–	7%	–	–	–
CC(C)C[C@@H]1NC(=O)[C@H](CCCNC(=N)N)NC(=O)[C@H](C(C)C)NC(=O)[C@@H]2CCCN2C(=O)[C@@H](Cc2ccccc2)NC(=O)[C@H](C)NC(=O)[C@H](CCCNC(=N)N)NC(=O)[C@H](C(C)C)NC(=O)[C@@H]2CCCN2C(=O)[C@@H](C)NC1=O [XQ21, Cyclo (AfPVRLaPVR)] (cyclo(A[dF]PVRL[dA]PVR))	0%	–	107.409% and 108.531%	108%	–
Cyclo (LfPTDAfPVR) [XQ84]	–	0%	–	–	–
Cyclo (LfRVDAfPVR) [XQ82]	–	0%	–	–	–
CC(C)C[C@@H]1NC(=O)[C@H](CC(=O)O)NC(=O)[C@H](C(C)C)NC(=O)[C@@H]2CCCN2C(=O)[C@@H](C)NC(=O)[C@H](C)NC(=O)[C@H](CCCNC(=N)N)NC(=O)[C@H](C(C)C)NC(=O)[C@@H]2CCCN2C(=O)[C@@H](Cc2ccccc2)NC1=O [XQ78, Cyclo (AaPVDLfPVR)] (cyclo(A[dA]PVDL[dF]PVR))	0%	–	–	–	–
CC(C)C[C@@H]1NC(=O)[C@H](CCCNC(=N)N)NC(=O)[C@H](C(C)C)NC(=O)[C@@H]2CCCN2C(=O)[C@@H](C)NC(=O)[C@H](CC(C)C)NC(=O)[C@H](CCCNC(=N)N)NC(=O)[C@H](C(C)C)NC(=O)[C@@H]2CCCN2C(=O)[C@@H](C)NC1=O [XQ7, Cyclo (LaPVRLaPVR)] (cyclo(L[dA]PVRL[dA]PVR))	0%	–	101.466% and 100.76%	101%	–
CC(C)[C@@H]1NC(=O)[C@@H]2CCCN2C(=O)[C@@H](C)NC(=O)[C@H](C)NC(=O)[C@H](CCCNC(=N)N)NC(=O)[C@H](C(C)C)NC(=O)[C@@H]2CCCN2C(=O)[C@@H](Cc2ccccc2)NC(=O)[C@H](C)NC(=O)[C@H](CCCNC(=N)N)NC1=O [XQ22, Cyclo (AaPVRAfPVR)] (cyclo(A[dA]PVRA[dF]PVR))	0%	–	99.3962% and 98.6078%	102%	–
CC(C)C[C@@H]1NC(=O)[C@H](CCCNC(=N)N)NC(=O)[C@H](CC(C)C)NC(=O)[C@@H]2CCCN2C(=O)[C@@H](Cc2ccccc2)NC(=O)[C@H](C)NC(=O)[C@H](CCCNC(=N)N)NC(=O)[C@H](C(C)C)NC(=O)[C@@H]2CCCN2C(=O)[C@@H](Cc2ccccc2)NC1=O [XQ47, Cyclo (AfPLRLfPVR)] (cyclo(A[dF]PLRL[dF]PVR))	0%	–	–	–	–
CC(C)C[C@@H]1NC(=O)[C@H](C)NC(=O)[C@H](C(C)C)NC(=O)[C@@H]2CCCN2C(=O)[C@@H](Cc2ccccc2)NC(=O)[C@H](CCCNC(=N)N)NC(=O)[C@H](CCCNC(=N)N)NC(=O)[C@H](C(C)C)NC(=O)[C@@H]2CCCN2C(=O)[C@@H](Cc2ccccc2)NC1=O [XQ44, Cyclo (RfPVALfPVR)] (cyclo(AL[dF]PVRR[dF]PV))	0%	–	107.77% and 107.519%	107%	–
Cyclo (LwP(T(NMe))DLf(K(Dde))VR) [XQ61]	–	16%	–	–	–
CC(C)C[C@@H]1NC(=O)[C@H](CCCNC(=N)N)NC(=O)[C@H](C(C)C)NC(=O)[C@@H]2CCCN2C(=O)[C@@H](Cc2c[nH]c3ccccc23)NC(=O)[C@H](CC(C)C)NC(=O)[C@H](CCCNC(=N)N)NC(=O)[C@H](C(C)C)NC(=O)[C@@H]2CCCN2C(=O)[C@@H](Cc2c[nH]c3ccccc23)NC1=O [XQ11, Cyclo (LwPVRLwPVR)] (cyclo(L[dW]PVRL[dW]PVR))	14%	–	86.4291% and 86.3946%	85.2%	–
CC(C)C[C@@H]1NC(=O)[C@H](CCCNC(=N)N)NC(=O)[C@H](C(C)C)NC(=O)[C@@H]2CCCN2C(=O)[C@@H](Cc2ccccc2)NC(=O)[C@H](C)NC(=O)[C@H](CCCNC(=N)N)NC(=O)[C@H](CC(C)C)NC(=O)[C@@H]2CCCN2C(=O)[C@@H](Cc2ccccc2)NC1=O [XQ51, Cyclo (LfPLRAfPVR)] (cyclo(A[dF]PVRL[dF]PLR))	0%	–	–	–	–
CC(C)C[C@@H]1NC(=O)[C@H](C)NC(=O)[C@H](C(C)C)NC(=O)[C@@H]2CCCN2C(=O)[C@@H](Cc2ccccc2)NC(=O)[C@H](CC(C)C)NC(=O)[C@H](CCCNC(=N)N)NC(=O)[C@H](C(C)C)NC(=O)[C@@H]2CCCN2C(=O)[C@@H](Cc2ccccc2)NC1=O [XQ4, Cyclo (LfPVALfPVR)] (cyclo(AL[dF]PVRL[dF]PV))	16%	–	84.7804% and 84.3938%	84.5%	–
Cyclo (LfPTDLfPVR) [XQ90]	–	5%	–	–	–
Cyclo (Lw(K(Dde))VDLf(K(Dde))VR) [XQ71]	–	0%	–	–	–
CC(C)C[C@@H]1NC(=O)[C@H](CCCNC(=N)N)NC(=O)[C@H](C)NC(=O)[C@@H]2CCCN2C(=O)[C@@H](Cc2ccccc2)NC(=O)[C@H](CC(C)C)NC(=O)[C@H](CCCNC(=N)N)NC(=O)[C@H](C)NC(=O)[C@@H]2CCCN2C(=O)[C@@H](Cc2ccccc2)NC1=O [XQ9, Cyclo (LfPARLfPAR)] (cyclo(ARL[dF]PARL[dF]P))	0%	–	109.335% and 107.433%	108%	–
CC(C)C[C@@H]1NC(=O)[C@H](CC(=O)O)NC(=O)[C@H]([C@@H](C)O)NC(=O)[C@@H]2CCCN2C(=O)[C@@H](Cc2ccccc2)NC(=O)[C@H](CC(C)C)NC(=O)[C@H](CCCNC(=N)N)NC(=O)[C@H]([C@@H](C)O)NC(=O)[C@H](C)NC(=O)[C@@H](Cc2ccccc2)NC1=O [XQ59, Cyclo (LfPTDLfATR)] (cyclo(ATRL[dF]PTDL[dF]))	0%	–	–	–	–
N=C(N)NCCC[C@@H]1NC(=O)[C@@H]2CCCN2C(=O)[C@@H](Cc2ccccc2)NC(=O)[C@H](CCCNC(=N)N)NC(=O)[C@@H]2CCCN2C(=O)[C@@H](Cc2ccccc2)NC1=O [XQ26, Cyclo (PRfPRf)] (cyclo(PR[dF]PR[dF]))	0%	–	116.041% and 118.595%	116%	–
CC(C)C[C@@H]1NC(=O)[C@H](CCCNC(=N)N)NC(=O)[C@H]([C@@H](C)O)NC(=O)[C@@H]2CCCN2C(=O)[C@@H](Cc2ccccc2)NC(=O)[C@H](CC(C)C)NC(=O)[C@H](CCCNC(=N)N)NC(=O)[C@H]([C@@H](C)O)NC(=O)[C@@H]2CCCN2C(=O)CNC1=O [XQ32, Cyclo (LgPTRLfPTR)] (cyclo(GPTRL[dF]PTRL))	30%	–	69.874% and 69.5698%	69.3%	–
CC(C)C[C@@H]1NC(=O)[C@H](CCCNC(=N)N)NC(=O)[C@H](C(C)C)NC(=O)[C@@H]2CCCN2C(=O)[C@@H](CC(C)C)NC(=O)[C@H](C)NC(=O)[C@H](CCCNC(=N)N)NC(=O)[C@H](C(C)C)NC(=O)[C@@H]2CCCN2C(=O)[C@@H](Cc2ccccc2)NC1=O [XQ49, Cyclo (AlPVRLfPVR)] (cyclo(A[dL]PVRL[dF]PVR))	–	–	–	–	0%
Cyclo (LfPTDLf(Orn(Dde))VR) [XQ70]	–	0%	–	–	–
